Results reported in publication PMC4872591, “An evaluation of Minor Groove Binders as anti-Trypanosoma brucei brucei therapeutics” (European Journal of Medicinal Chemistry, 2016).
Read-outs that look alike come from different tables or passages of the source. Marks after values point to notes of the source that are not given here.

Assays:
[1] = tested on: kinetoplast of trypanosome; parameters: method as in PMID 16723581; conditions: cited from earlier work
[2] = tested on: Bloodstream form T. b. brucei (Lister 427); assay: Trypanosoma brucei brucei Alamar Blue assay; assay type: cell-based; conditions: Trypanosoma brucei
Procedure: IC50 values against trypanosomes were determined by Alamar Blue assay. […] After this time, 20 μL of resazurin dye (Sigma–Aldrich) solution at 0.49 mM was added. […] Output was plotted using the IC50 determination algorithm of Prism 5.0 software (GraphPad). Three independent experiments were carried out in duplicate for each compound.

HEK 293 cells = assay: HEK 293 cytotoxicity assay (AlamarBlue viability); assay type: cell-based, human; conditions: for SI (selectivity index): HEK 293 IC50 taken as 20 μM (10 μM estimated for compound 21) versus T. b. brucei IC50
Procedure: Compounds were tested in an AlamarBlue viability assay using fluorescent intensity as the output. Briefly, Human Embryonic Kidney cells (HEK 293) were cultured in DMEM (Dulbeccos Modified Eagle Medium) plus 10% Foetal Bovine Serum (FBS) in a humidified environment at 37 °C and 5% CO2. Cells were harvested at 80% confluence and plated into 384-well tissue culture treated black walled clear base plates at 2000 cells per well in a volume of 45 μl and incubated overnight to equilibrate. Five μl of compounds in serial dilution format, including Puromycin as a positive control and 0.4% DMSO as the negative control, were transferred into the plates containing the equilibrated HEK293 cells. The plates were incubated for a further 72 h before “flicking” the compound containing media out and replacing with 40 μL of 10% AlamarBlue® in DMEM without FBS. The assay plates were returned to the incubator for 6 h then the total fluorescent intensity determined at 535 nm excitation and 585 nm emission using the Perkin Elmer ENVISION 2101 Multilabel Reader. Fluorescent intensity values were normalized as percent inhibition in relation to the positive and negative controls of 5 μM Puromycin and 0.4% DMSO, respectively. The compounds were tested in two separate experiments each in duplicate point.

T. b. brucei = assay: Fluorescence microscopy, intracellular localisation in T. b. brucei; assay type: cell-based, Trypanosoma brucei brucei; conditions: 50 μM, 2 h, FITC and DsRed filters
Procedure: Fig. 6 Intracellular localisation of fluorescent MGB in T. b. brucei. Trypanosomes were treated for 2 h with 50 μM of MGB and viewed at 100 × magnification. N = nucleus; K = kinetoplast; arrow = other organelles. Bar = 10 μm.
T. b. brucei parasites (1 × 10^7 cell/mL) were treated with 50 μM of compound 32 for 2 h at 37 °C in a humidified, 5% CO2 atmosphere. After washing in PBS, an aliquot of cells was mixed with an equal volume of 2% w/v low melting point agarose (Sigma–Aldrich) and spread onto a slide by addition of a coverslip. Slides were viewed using a Zeiss Axioplan 2 Imaging epifluorescence microscope, equipped with a digital CCD camera (Hammatsu Photonics) and a Plan[…] 100 × oil-immersion NA 1.4 objective (Carl Zeiss). FITC (excitation 450–490 nm, beamsplitter 510 nm, emission 515–565 nm) and DsRed (excitation 545/25 nm, beamsplitter 570 nm, emission 605/70 nm) filter sets were used, and images acquired using Volocity imaging software (Improvision).

[3] = Table 1, Alamar Blue, 48 h + 24 h, all standard deviations less than 2%, read-out: IC50 against Trypanosoma brucei brucei
[4] = Table 2, read-out: Trypanosoma brucei brucei IC50
[5] = values given in nM, read-out: IC50 against T. b. brucei

Structure (SMILES)	IC50 [2, 3]	IC50 [2, 4]	IC50 [2, 5]	SI (selectivity index) (HEK 293 cells)	also measured
N=C(N)c1ccc(OCCCCCOc2ccc(C(=N)N)cc2)cc1 [pentamidine]	–	–	–	–	exposure time to destruction of the kinetoplast [1]: ≤ 24 h
N=C(N)c1ccc(-c2ccc(-c3ccc(C(=N)N)cc3)o2)cc1 [Furamidine, furamidine]	–	–	–	–	exposure time to destruction of the kinetoplast [1]: ≤ 24 h
CC(C)CCc1sc(NC(=O)c2cc(NC(=O)c3cc(/C=C/c4ccc([N+](=O)[O-])cc4)cn3C)cn2C)nc1C(=O)NCCN1CCOCC1 [Compound 21, 5-isopentyl-2-[({1-methyl-4-[({1-methyl-4-[(E)-2-(4-nitrophenyl)ethenyl]-1H-pyrrol-2-yl}carbonyl)amino]-1H-pyrrol-2-yl}carbonyl)amino]-N-[2-(4-morpholinyl)ethyl]-1,3-thiazole-4-carboxamide]	5.4 nM	5.4 nM	< 40 nM	>1851*	inhibition at 20 µM (HEK 293 cells; Homo sapiens, HEK293, 20 μM, 72 h, HEK 293): 54%; IC50 (HEK 293 cells; Homo sapiens, HEK293, read-out: estimated IC50 against HEK 293 cells): ~10 µM
COc1ccc(C[C@H](N)C(=O)N[C@H]2[C@@H](O)[C@H](n3cnc4c(N(C)C)ncnc43)O[C@@H]2CO)cc1 [Puromycin, reference compound]	–	–	–	–	IC50 (HEK 293 cells; Homo sapiens, HEK293, positive control, two separate independent experiments, read-out: IC50 against HEK 293 cells): 0.351 µM
CC(C)CCc1sc(NC(=O)c2cc(NC(=O)c3ccc(/C=C/c4ccc5ccccc5c4)cc3)cn2C)nc1C(=O)NCCN1CCOCC1 [Compound 20, 5-isopentyl-2-({[1-methyl-4-({4-[(E)-2-(2-naphthyl)ethenyl]benzoyl}amino)-1H-pyrrol-2-yl]carbonyl}amino)-N-[2-(4-morpholinyl)ethyl]-1,3-thiazole-4-carboxamide]	40 nM	40 nM	< 40 nM	>500	% HEK 293 Inhibition at 20 μM (HEK 293 cells; 20 μM, 72 h, HEK 293): N/A (N/A is an IC50 value > 20 μM)
CN(C)c1ccc(/C=C/c2ccc(C(=O)Nc3cc(C(=O)Nc4cc(C(=O)NCCN5CCOCC5)n(C)c4)n(C)c3)cn2)cc1 [Compound 32, 6-{(E)-2-[4-(Dimethylamino)phenyl]ethenyl}-N-[1-methyl-5-({[1-methyl-5-({[2-(4-morpholinyl)ethyl]amino}carbonyl)-1H-pyrrol-3-yl]amino}carbonyl)-1H-pyrrol-3-yl]nicotinamide]	170 nM	–	–	–	Intracellular localisation in the trypanosome (T. b. brucei): localisation to the nucleic acid rich regions of the nucleus and kinetoplast
Cn1cc(NC(=O)c2cc(NC(=O)c3ccc(/C=C/c4ccc5nsnc5c4)cc3)cn2C)cc1C(=O)NCCN1CCOCC1 [Compound 28, 4-({4-[(E)-2-(2,1,3-benzothiadiazol-5-yl)ethenyl]benzoyl}amino)-1-methyl-N-[1-methyl-5-({[2-(4-morpholinyl)ethyl]amino}carbonyl)-1H-pyrrol-3-yl]-1H-pyrrole-2-carboxamide]	7.3 nM	7.3 nM	< 40 nM	>2739	% HEK 293 Inhibition at 20 μM (HEK 293 cells; 20 μM, 72 h, HEK 293): N/A (N/A is an IC50 value > 20 μM)
Cn1cc(NC(=O)c2cc(NC(=O)c3ccc(/C=C/c4ccc5nonc5c4)cc3)cn2C)cc1C(=O)NCCN1CCOCC1 [Compound 29, 4-({4-[(E)-2-(2,1,3-benzoxadiazol-5-yl)ethenyl]benzoyl}amino)-1-methyl-N-[1-methyl-5-({[2-(4-morpholinyl)ethyl]amino}carbonyl)-1H-pyrrol-3-yl]-1H-pyrrole-2-carboxamide]	19 nM	19 nM	< 40 nM	>1052	% HEK 293 Inhibition at 20 μM (HEK 293 cells; 20 μM, 72 h, HEK 293): N/A (N/A is an IC50 value > 20 μM)
COc1cccc(C(=N)Nc2cc(C(=O)Nc3cc(C(=O)Nc4cc(C(=O)NCCCN(C)C)n(C)c4)n(C(C)C)c3)n(C)c2)c1 [Compound 7, N-[5-({[5-({[3-(Dimethylamino)propyl]amino}carbonyl)-1-methyl-1H-pyrrol-3-yl]amino}carbonyl)-1-isopropyl-1H-pyrrol-3-yl]-4-{[imino(3-methoxyphenyl)methyl]amino}-1-methyl-1H-pyrrole-2-carboxamide]	27000 nM	–	–	–	–
CC(=N)Nc1cc(C(=O)Nc2cc(C(=O)Nc3cc(C(=O)NCCCN(C)C)n(C)c3)n(C)c2)n(C)c1 [Compound 2, N-[5-({[5-({[3-(Dimethylamino)propyl]amino}carbonyl)-1-methyl-1H-pyrrol-3-yl]amino}carbonyl)-1-methyl-1H-pyrrol-3-yl]-4-(ethanimidoylamino)-1-methyl-1H-pyrrole-2-carboxamide]	> 75000 nM	–	–	–	IC50 ([2]; values in μM, read-out: IC50 against T. b. brucei): > 75000 nM
Cn1cc(NC(=O)c2cc(NC(=O)c3cc(NC(=O)c4cc5ccccc5cn4)cn3C)cn2C)cc1C(=O)NCCCN1CCOCC1 [Compound 8, N-[1-Methyl-5-({[1-methyl-5-({[1-methyl-5-({[3-(4-morpholinyl)propyl]amino}carbonyl)-1H-pyrrol-3-yl]amino}carbonyl)-1H-pyrrol-3-yl]amino}carbonyl)-1H-pyrrol-3-yl]-3-isoquinolinecarboxamide]	6.8 nM	6.8 nM	< 40 nM	>2941	% HEK 293 Inhibition at 20 μM (HEK 293 cells; 20 μM, 72 h, HEK 293): N/A (N/A is an IC50 value > 20 μM)
Cn1cc(NC(=O)c2cc(NC(=O)c3ccc(/C=C/c4cccc(F)c4)cc3)cn2C)cc1C(=O)NCCN1CCOCC1 [Compound 27, 4-({4-[(E)-2-(3-fluorophenyl)ethenyl]benzoyl}amino)-1-methyl-N-[1-methyl-5-({[2-(4-morpholinyl)ethyl]amino}carbonyl)-1H-pyrrol-3-yl]-1H-pyrrole-2-carboxamide]	220 nM	–	–	–	–
CC(C)CCc1sc(NC(=O)c2cc(NC(=O)c3cc4ccccc4cn3)cn2C)nc1C(=O)NCCCN(C)C [Compound 18, N-[5-({[4-({[3-(Dimethylamino)propyl]amino}carbonyl)-5-isopentyl-1,3-thiazol-2-yl]amino}carbonyl)-1-methyl-1H-pyrrol-3-yl]-3-isoquinolinecarboxamide]	390 nM	–	–	–	–
Cn1cc(NC(=O)c2cc(NC(=O)c3ccc(/C=C/c4ccncc4)cc3)cn2C)cc1C(=O)NCCN1CCOCC1 [Compound 24, 1-Methyl-N-[1-methyl-5-({[2-(4-morpholinyl)ethyl]amino}carbonyl)-1H-pyrrol-3-yl]-4-({4-[(E)-2-(4-pyridinyl)ethenyl]benzoyl}amino)-1H-pyrrole-2-carboxamide]	380 nM	–	–	–	–
CSc1ccc(/C=C/c2ccc3cc(C(=O)Nc4cc(C(=O)Nc5cc(C(=O)NCCN6CCOCC6)n(C)c5)n(C)c4)ccc3n2)cc1 [Compound 31, N-[1-methyl-5-({[1-methyl-5-({[2-(4-morpholinyl)ethyl]amino}carbonyl)-1H-pyrrol-3-yl]amino}carbonyl)-1H-pyrrol-3-yl]-2-{(E)-2-[4-(methylsulfanyl)phenyl]ethenyl}-6-quinolinecarboxamide]	5000 nM	–	–	–	–
Cn1cc(NC(=O)c2cc(NC(=O)c3ccc(/C=C/c4ccc(C(F)(F)F)cc4)cc3)cn2C)cc1C(=O)NCCN1CCOCC1 [Compound 22, 1-methyl-N-[1-methyl-5-({[2-(4-morpholinyl)ethyl]amino}carbonyl)-1H-pyrrol-3-yl]-4-[(4-{(E)-2-[4-(trifluoromethyl)phenyl]ethenyl}benzoyl)amino]-1H-pyrrole-2-carboxamide]	730 nM	–	–	–	–
